pIC50: −log10 of the molar value. Read-outs that look alike come from different tables or passages of the source.
Assays:
RET(G810R) = molecular target: T1, RET(G810R) (Homo sapiens, UniProt P07949, G810R); assay: Kinase panel inhibition, radiolabeled [γ-33P] ATP (Reaction Biology Corp); type: biochemical; conditions: for remaining activity at 0.1 µM: compound at 0.1 uM
T1 construct: purchased Reaction Biology Corp
Description: (§1) Using radiolabeled ATP ([γ-33P] ATP), the degree to which the substrate was replaced by a 33P-phosphorylated substrate was measured, and changes in kinase activity were determined from the measurement of the radiolabeled phosphorylated substrate.

RET(V804M) = molecular target: T2, RET(V804M) (Homo sapiens, UniProt P07949, V804M); assay: as above; type: biochemical; conditions: for remaining activity at 0.1 µM: compound at 0.1 uM
T2 construct: purchased Reaction Biology Corp
T2 sequence (P07949 29-1114 V804M): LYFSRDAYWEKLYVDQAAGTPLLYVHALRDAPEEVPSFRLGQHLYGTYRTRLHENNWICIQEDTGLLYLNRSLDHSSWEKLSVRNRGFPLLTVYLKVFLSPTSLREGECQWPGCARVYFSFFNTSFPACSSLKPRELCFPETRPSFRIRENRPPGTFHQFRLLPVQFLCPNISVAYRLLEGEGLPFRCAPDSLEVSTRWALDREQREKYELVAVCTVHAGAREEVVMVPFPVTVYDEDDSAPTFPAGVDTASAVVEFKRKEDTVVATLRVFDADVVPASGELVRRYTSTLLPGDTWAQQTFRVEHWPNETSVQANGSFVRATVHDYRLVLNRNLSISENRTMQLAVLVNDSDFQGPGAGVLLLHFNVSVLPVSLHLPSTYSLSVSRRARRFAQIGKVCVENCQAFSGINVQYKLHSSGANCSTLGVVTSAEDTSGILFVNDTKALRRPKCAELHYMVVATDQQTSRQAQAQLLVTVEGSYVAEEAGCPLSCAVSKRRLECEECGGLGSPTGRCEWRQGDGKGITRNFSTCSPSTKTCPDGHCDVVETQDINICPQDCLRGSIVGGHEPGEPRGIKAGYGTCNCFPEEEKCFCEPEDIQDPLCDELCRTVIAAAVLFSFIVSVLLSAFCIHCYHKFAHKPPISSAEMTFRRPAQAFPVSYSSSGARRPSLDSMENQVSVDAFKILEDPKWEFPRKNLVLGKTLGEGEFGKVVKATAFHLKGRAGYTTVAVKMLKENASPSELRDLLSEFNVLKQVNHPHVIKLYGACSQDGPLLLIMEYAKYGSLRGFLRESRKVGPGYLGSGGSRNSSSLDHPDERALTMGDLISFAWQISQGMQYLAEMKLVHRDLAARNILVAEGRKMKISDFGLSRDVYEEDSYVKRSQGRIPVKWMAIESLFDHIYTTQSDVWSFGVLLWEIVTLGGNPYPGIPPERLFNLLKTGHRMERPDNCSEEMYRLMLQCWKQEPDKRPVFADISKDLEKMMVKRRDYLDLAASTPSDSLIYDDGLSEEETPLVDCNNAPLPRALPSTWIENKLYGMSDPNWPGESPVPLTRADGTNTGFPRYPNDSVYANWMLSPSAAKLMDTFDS
Description: as §1

RET(V804M)-KIF5B = molecular target: T3, RET(V804M)-KIF5B (Homo sapiens, UniProt P07949, V804M); assay: as above; type: biochemical; conditions: for remaining activity at 0.1 µM: compound at 0.1 uM, ATP 10 µM, read-out: % Enzyme Activity (relative to DMSO controls) RET (V804M )-KIF5B
T3 sequence (P07949 713-1114 V804M): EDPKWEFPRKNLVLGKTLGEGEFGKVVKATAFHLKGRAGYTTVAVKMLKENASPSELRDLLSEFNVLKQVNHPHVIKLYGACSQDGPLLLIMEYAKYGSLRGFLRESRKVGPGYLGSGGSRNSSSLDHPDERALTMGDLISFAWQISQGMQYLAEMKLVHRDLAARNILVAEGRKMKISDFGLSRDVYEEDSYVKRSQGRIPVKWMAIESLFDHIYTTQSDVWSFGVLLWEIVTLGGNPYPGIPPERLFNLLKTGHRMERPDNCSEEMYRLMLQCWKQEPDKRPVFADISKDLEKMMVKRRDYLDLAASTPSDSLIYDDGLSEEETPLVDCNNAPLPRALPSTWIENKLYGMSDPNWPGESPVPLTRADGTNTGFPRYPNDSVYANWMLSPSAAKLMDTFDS
T3 sequence (P33176 2-575 partner): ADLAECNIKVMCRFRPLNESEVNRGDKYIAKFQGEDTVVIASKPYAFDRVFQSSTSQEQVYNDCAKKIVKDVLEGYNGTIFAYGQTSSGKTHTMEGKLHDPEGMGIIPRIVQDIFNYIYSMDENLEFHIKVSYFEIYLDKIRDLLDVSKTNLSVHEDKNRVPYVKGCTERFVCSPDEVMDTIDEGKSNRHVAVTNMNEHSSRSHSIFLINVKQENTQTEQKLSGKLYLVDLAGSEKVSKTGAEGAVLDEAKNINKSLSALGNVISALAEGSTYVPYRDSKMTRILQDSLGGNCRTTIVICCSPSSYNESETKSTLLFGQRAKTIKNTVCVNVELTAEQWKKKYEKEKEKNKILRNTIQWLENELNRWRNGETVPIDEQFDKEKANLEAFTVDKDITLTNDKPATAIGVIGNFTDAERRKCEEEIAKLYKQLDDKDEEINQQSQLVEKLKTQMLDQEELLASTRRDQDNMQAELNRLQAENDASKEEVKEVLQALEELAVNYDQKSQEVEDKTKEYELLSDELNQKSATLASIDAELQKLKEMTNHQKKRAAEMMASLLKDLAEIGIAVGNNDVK
Description: as §1

RET-CCDC6 (PTC1) = molecular target: T4, RET-CCDC6 (PTC1) (Homo sapiens, UniProt P07949); assay: as above; type: biochemical; conditions: compound at 10 uM, ATP 1 µM
T4 construct: purchased Reaction Biology Corp
T4 sequence (P07949 whole entry, looked up): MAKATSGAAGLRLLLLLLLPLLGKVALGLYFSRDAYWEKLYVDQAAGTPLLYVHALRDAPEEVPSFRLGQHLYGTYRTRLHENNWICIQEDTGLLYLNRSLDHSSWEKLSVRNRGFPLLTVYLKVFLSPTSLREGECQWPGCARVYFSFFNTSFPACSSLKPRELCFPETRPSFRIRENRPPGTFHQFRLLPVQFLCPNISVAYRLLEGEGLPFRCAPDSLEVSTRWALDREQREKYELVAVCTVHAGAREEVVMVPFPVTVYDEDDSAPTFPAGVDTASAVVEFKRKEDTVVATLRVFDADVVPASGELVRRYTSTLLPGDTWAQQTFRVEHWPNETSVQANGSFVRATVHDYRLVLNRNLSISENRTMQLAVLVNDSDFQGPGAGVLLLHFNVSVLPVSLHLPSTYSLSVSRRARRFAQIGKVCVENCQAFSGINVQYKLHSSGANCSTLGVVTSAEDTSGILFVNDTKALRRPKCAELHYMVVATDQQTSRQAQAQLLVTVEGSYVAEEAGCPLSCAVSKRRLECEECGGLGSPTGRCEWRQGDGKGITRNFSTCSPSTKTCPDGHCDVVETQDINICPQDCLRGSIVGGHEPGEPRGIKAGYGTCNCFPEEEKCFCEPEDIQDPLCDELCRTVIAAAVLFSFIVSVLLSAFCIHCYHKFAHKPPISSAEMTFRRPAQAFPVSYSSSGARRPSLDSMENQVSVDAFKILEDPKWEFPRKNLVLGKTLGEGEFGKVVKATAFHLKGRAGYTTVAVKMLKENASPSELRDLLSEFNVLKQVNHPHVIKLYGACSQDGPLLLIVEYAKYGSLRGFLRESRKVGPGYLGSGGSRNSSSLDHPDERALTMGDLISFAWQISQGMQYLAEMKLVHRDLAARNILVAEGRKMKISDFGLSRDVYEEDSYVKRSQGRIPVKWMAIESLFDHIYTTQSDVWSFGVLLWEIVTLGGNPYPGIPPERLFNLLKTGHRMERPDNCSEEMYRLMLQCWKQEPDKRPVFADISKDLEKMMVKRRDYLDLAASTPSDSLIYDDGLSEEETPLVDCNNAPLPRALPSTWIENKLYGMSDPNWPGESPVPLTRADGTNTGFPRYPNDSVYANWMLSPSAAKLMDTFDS
Description: as §1

RET (G810S/M918T) = molecular target: T5, RET (G810S/M918T) (Homo sapiens, UniProt P07949, G810S/M918T); assay: as above; type: biochemical; conditions: ATP 1 µM; for remaining activity at 10 µM: compound at 10 uM; for remaining activity at 30 µM: compound at 30uM
T5 construct: purchased Reaction Biology Corp
T5 sequence (P07949 29-1114 G810S/M918T): as the sequence (P07949 29-1114 V804M) above, with M776V, G782S, M890T counted along it
Description: as §1

A-549 = assay: Cell proliferation inhibition, Cell Counting Kit-8, non-small cell lung cancer cell line; type: cell-based; conditions: A-549 cell line; 72 hours incubation; test concentration not given
RET = molecular target: T6, RET (Homo sapiens, UniProt P07949); assay: Kinase panel inhibition, radiolabeled [γ-33P] ATP (Reaction Biology Corp); type: biochemical; conditions: compound at 1 uM; ATP 10 µM; read-out: % Enzyme Activity (relative to DMSO controls) RET
T6 construct: purchased Reaction Biology Corp
T6 sequence (P07949 29-1114): as the sequence (P07949 29-1114 V804M) above, with M776V counted along it
Description: as §1

BaF3 KIF5B-RET (G810R) = assay: Cell proliferation inhibition, Cell Counting Kit-8, Ba/F3 cell line; type: cell-based, rodent; conditions: Mus musculus, 72 hours incubation, read-out: Cell Viability of BaF3 Cell lines (IC50 in uM) KIF5B-RET (G810R)
Description: Each cell line was seeded in a 96-well plate at 1×10^4 cells/90 µL/well, and 10 µL/well of culture medium containing each example and intermediate compound or DMSO control at 9 concentrations (1 nM to 100 µM) prepared by 3-fold serial dilutions was added to achieve a final concentration of 0 to 100 µM, followed by incubation for 72 hours in a 37°C, 5% CO2 incubator. After 72 hours of incubation, the compound-treated plates were removed, and Cell Counting Kit-8 solution was added at 10 µL/well and mixed well.
As a control compound, selpercatinib, a known RET inhibitor, was treated to calculate the IC50 values.

[1] = ATP 10 µM, read-out: % Enzyme Activity (relative to DMSO controls) G810R
[2] = ATP 10 µM, read-out: % Enzyme Activity (relative to DMSO controls) V804M
[3] = Data 1, read-out: % Enzyme Activity (relative to DMSO controls) RET-CCDC6 (PTC1) Data 1
[4] = Data 2, read-out: % Enzyme Activity (relative to DMSO controls) RET-CCDC6 (PTC1) Data 2
[5] = Data 1, read-out: % Enzyme Activity (relative to DMSO controls) RET (G810S/M918T) Data 1
[6] = Data 2, read-out: % Enzyme Activity (relative to DMSO controls) RET (G810S/M918T) Data 2

T1 sequence (P07949 29-1114 G810R): as the sequence (P07949 29-1114 V804M) above, with M776V, G782R counted along it

| Compound | remaining activity at 0.1 µM (RET(G810R); [1]) | remaining activity at 0.1 µM (RET(V804M); [2]) | remaining activity at 0.1 µM (RET(V804M)-KIF5B) | remaining activity at 10 µM (RET-CCDC6 (PTC1); [3]) | remaining activity at 10 µM (RET-CCDC6 (PTC1); [4]) | remaining activity at 10 µM (RET (G810S/M918T); [5]) | remaining activity at 10 µM (RET (G810S/M918T); [6]) | Cell Proliferation (% of control) (A-549) | IC50 (RET(G810R); read-out: Enzymatic inhibitory activity (IC50) nM G810R) | IC50 (RET(V804M); read-out: Enzymatic inhibitory activity (IC50) nM V804M) | pIC50 (RET(V804M)-KIF5B) | remaining activity at 1 µM (RET) | remaining activity at 1 µM (RET(G810R); compound at 1 uM, ATP 10 µM, read-out: % Enzyme Activity (relative to DMSO controls) G810R) | remaining activity at 1 µM (RET(V804M); compound at 1 uM, ATP 10 µM, read-out: % Enzyme Activity (relative to DMSO controls) V804M) | remaining activity at 30 µM (RET (G810S/M918T); [5]) | remaining activity at 30 µM (RET (G810S/M918T); [6]) | IC50 (BaF3 KIF5B-RET (G810R)) |
| --- | --- | --- | --- | --- | --- | --- | --- | --- | --- | --- | --- | --- | --- | --- | --- | --- | --- |
| O=C(Nc1cc(-c2ccc(N3CC(Oc4cccc(F)c4)C3)nc2)c2nccnc2c1)c1ccco1 [Example 8, N-(8-(6-(3-(3-fluorophenoxy)azetidin-1-yl)pyridin-3-yl)quinoxalin-6-yl)furan-2-carboxamide] | 96.7% | 46% | 65.1% | 2.53% | 1.8% | 13.6% | 12.9% | 78.35% |  |  |  |  |  |  |  |  |  |
| Nc1cc(-c2ccc(N3CC[C@H](NC(=O)c4ccccc4F)C3)nc2)c2nccnc2c1 [Example 10, (S)-N-(1-(5-(7-aminoquinoxalin-5-yl)pyridin-2-yl)pyrrolidin-3-yl)-2-fluorobenzamide] | 59.9% | 2.27% | 5.5% | 1.55% | 0.99% | -0.09% | -0.6% | 32.59% | 44.7 nM | 0.5 nM | 8.65 |  |  |  |  |  |  |
| CCS(=O)(=O)N1CCN(c2ccc(-c3cc(N)cc4nccnc34)cn2)CC1 [Example 22, 8-(6-(4-(ethylsulfonyl)piperazin-1-yl)pyridin-3-yl)quinoxalin-6-amine] |  |  |  | 2.9% | 3.03% | 15.7% | 15.1% | 68.42% |  |  |  |  |  |  |  |  |  |
| Nc1cc(-c2ccc(N3CCN(c4ccccn4)CC3)nc2)c2nccnc2c1 [Example 23, 8-(6-(4-(pyridin-2-yl)piperazin-1-yl)pyridin-3-yl)quinoxalin-6-amine] |  |  |  | 1.92% | 2.29% | 9.23% | 9.45% | 78.36% |  |  |  |  |  |  |  |  |  |
| Nc1cc(-c2ccc(N3CCN(Cc4ccc(Br)cc4)CC3)nc2)c2nccnc2c1 [Example 24, 8-(6-(4-(4-bromobenzyl)piperazin-1-yl)pyridin-3-yl)quinoxalin-6-amine] |  |  |  | 1.51% | 1.27% | 2.24% | 2.38% | 15.35% |  |  |  |  |  |  |  |  |  |
| Nc1cc(-c2ccc(N3CCC(N4CCOCC4)CC3)nc2)c2nccnc2c1 [Example 25, 8-(6-(4-morpholinopiperidin-1-yl)pyridin-3-yl)quinoxalin-6-amine] |  |  |  | 18.3% | 20.4% | 46.8% | 45.2% | 75.52% |  |  |  |  |  |  |  |  |  |
| CCNc1cc(-c2ccc(N3CCN(Cc4ccc(Br)cc4)CC3)nc2)c2nccnc2c1 [Example 26, 8-(6-(4-(4-bromobenzyl)piperazin-1-yl)pyridin-3-yl)-N-ethylquinoxalin-6-amine] |  |  |  | 0.94% | 1.32% | 1.23% | 1.3% | 79.51% |  |  |  |  |  |  |  |  |  |
| O=[N+]([O-])c1cc(-c2ccc(N3CC(Oc4cccc(F)c4)C3)nc2)c2nccnc2c1 [Example 27, 5-(6-(3-(3-fluorophenoxy)azetidin-1-yl)pyridin-3-yl)-7-nitroquinoxaline] |  |  |  |  |  |  |  | 94.57% |  |  |  | 67.2% | 101% | 62.8% | 59.9% | 58.1% | > 10 µM |

Reference: patent EP4796538A1, “NOVEL QUINOXALINE COMPOUNDS, MANUFACTURING METHOD THEREOF, AND USES THEREOF” (Gachon University of Industry-Academic Cooperation …, priority 2023, dated 2025)
